Assay results from ChEMBL document CHEMBL6127139, “Lysine-Targeted Covalent Inhibitors of PI3Kδ Synthesis and Screening by In Situ Interaction Upgradation” (J Med Chem, 2024).

Key:
[1] = Growth inhibition of PI3Kdelta-overexpressing human SU-DHL-6 cells incubated for 72 hrs by MTT assay; assay type: functional
[2] = Chemical reactivity of the compound with N-Boc-Lysine assessed as half-life at 1 uM by HPLC analysis; assay type: physicochemical; conditions: incubation with N-Boc-Lysine
[3] = target: T1, Phosphatidylinositol 4,5-bisphosphate 3-kinase catalytic subunit delta isoform (Homo sapiens, UniProt O00329); test: Inhibition of recombinant PI3Kdelta (unknown origin) using PIP2:3PS as substrate preincubated for 20 mins followed by ATP addition and measured after 1 hrs by ADP-Glo reagent based assay
T1 sequence (O00329 whole entry): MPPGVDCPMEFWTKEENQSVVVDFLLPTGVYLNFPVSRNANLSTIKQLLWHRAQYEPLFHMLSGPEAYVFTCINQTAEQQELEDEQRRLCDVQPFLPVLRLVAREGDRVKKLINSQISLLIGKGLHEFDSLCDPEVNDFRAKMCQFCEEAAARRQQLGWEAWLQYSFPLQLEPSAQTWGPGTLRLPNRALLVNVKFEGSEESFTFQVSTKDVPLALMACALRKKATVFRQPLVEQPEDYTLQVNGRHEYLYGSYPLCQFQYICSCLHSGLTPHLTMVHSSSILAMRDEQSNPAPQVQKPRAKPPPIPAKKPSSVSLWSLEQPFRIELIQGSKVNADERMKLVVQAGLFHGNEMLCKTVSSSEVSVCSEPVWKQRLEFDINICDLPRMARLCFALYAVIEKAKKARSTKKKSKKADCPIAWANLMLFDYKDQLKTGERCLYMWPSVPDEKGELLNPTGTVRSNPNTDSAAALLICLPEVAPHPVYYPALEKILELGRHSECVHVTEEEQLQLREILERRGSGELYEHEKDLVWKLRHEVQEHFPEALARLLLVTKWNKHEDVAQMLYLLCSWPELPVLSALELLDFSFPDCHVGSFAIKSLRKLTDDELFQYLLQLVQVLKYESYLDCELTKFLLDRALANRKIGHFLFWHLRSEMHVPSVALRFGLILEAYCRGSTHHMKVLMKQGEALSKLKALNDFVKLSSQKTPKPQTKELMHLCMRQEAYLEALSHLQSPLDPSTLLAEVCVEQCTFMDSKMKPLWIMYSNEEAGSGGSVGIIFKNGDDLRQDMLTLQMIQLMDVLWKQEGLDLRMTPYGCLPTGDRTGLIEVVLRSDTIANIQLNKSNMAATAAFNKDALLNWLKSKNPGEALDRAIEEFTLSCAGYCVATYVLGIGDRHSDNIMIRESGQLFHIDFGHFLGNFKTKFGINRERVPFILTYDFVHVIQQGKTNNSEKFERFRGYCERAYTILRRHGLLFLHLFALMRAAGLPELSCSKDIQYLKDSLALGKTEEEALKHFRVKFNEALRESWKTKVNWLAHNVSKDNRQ

[4] = target: Phosphatidylinositol 4,5-bisphosphate 3-kinase catalytic subunit alpha isoform (Homo sapiens, UniProt P42336); test: Inhibition of recombinant PI3Kalpha (unknown origin) using PIP2:3PS as substrate preincubated for 20 mins followed by ATP addition and measured after 1 hrs by ADP-Glo reagent based assay
[5] = Growth inhibition of PI3Kdelta-overexpressing human Pfeiffer cells incubated for 72 hrs by MTT assay; assay type: functional

Phosphatidylinositol 4,5-bisphosphate 3-kinase catalytic subunit alpha isoform, sequence (P42336 whole entry, canonical isoform): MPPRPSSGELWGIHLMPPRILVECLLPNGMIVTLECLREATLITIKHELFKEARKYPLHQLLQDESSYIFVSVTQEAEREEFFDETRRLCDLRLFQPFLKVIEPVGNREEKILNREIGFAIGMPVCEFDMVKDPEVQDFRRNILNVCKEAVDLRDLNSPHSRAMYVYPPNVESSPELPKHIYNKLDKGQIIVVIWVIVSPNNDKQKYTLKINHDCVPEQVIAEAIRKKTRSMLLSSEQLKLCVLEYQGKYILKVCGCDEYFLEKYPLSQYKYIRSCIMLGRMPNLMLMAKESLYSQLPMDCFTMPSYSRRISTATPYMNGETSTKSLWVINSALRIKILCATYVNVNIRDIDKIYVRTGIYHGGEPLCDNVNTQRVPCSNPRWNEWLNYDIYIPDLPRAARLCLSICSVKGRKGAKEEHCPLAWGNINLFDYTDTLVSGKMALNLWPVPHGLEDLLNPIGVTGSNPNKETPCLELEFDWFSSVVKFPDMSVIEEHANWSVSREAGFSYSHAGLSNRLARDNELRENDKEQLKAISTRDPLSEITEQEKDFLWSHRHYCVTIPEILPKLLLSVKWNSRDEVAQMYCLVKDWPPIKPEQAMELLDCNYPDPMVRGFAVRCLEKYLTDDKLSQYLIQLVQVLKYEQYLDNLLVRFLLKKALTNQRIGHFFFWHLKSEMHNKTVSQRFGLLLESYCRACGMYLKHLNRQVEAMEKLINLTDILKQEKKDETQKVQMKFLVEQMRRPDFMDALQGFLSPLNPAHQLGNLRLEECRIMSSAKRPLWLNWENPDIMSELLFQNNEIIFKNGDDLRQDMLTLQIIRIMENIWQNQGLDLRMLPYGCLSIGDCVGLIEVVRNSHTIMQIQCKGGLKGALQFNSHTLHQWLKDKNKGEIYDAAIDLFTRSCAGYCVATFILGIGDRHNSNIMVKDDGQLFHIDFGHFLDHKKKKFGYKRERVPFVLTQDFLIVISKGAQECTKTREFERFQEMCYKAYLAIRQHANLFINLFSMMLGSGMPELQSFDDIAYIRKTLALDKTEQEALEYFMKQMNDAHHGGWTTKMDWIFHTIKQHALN

| Compound | GI50 [1] | half-life at 1 µM [2] | IC50 [3] | IC50 [4] | GI50 [5] |
| --- | --- | --- | --- | --- | --- |
| COc1ncc(-c2ccc3ncnc(N[C@H]4CCN(C(=O)C5CCOCC5)C4)c3c2)cc1C(=O)Oc1ccc(C)cc1 | 3 nM | 353 min | 2.47 nM | 145 nM | 137 nM |
| COc1ncc(-c2ccc3ncnc(N[C@H]4CCN(C(=O)C5CCOCC5)C4)c3c2)cc1C(=O)Oc1ccc(F)cc1F | 64 nM | 3.1 min | 1.47 nM | 39.3 nM | 433 nM |
| COc1ncc(-c2ccc3ncnc(N[C@H]4CCN(C(=O)C5CCOCC5)C4)c3n2)cc1C(=O)Oc1ccc(Cl)cc1Cl | 53 nM | 1.1 min | 1.42 nM | > 1000 nM | 752 nM |
| COc1ncc(-c2ccc3ncnc(N[C@H]4CCN(C(=O)C5CCOCC5)C4)c3n2)cc1C(=O)Oc1ccc(C#N)cc1 | 32 nM | < 1 min | 1.86 nM | 51.4 nM | 425 nM |
| COc1ncc(-c2ccc3ncnc(N[C@H]4CCN(C(=O)C5CCOCC5)C4)c3c2)cc1CCl | 310 nM | 420 min | 24.2 nM |  | 490 nM |
| O=Cc1cc(-c2ccc3ncnc(N[C@H]4CCN(C(=O)C5CCOCC5)C4)c3c2)ccc1O | 320 nM | < 1 min | 6.46 nM |  | 7780 nM |
| COc1ncc(-c2ccc3ncnc(N[C@H]4CCN(C(=O)C5CCOCC5)C4)c3n2)cc1C(=O)Oc1ccc(C)cc1 | 8 nM | 326 min | 6.11 nM | 13.5 nM | 139 nM |
| C#Cc1ccc(-c2ccc3ncnc(N[C@H]4CCN(C(=O)C5CCOCC5)C4)c3c2)cc1C=O | 850 nM | 1.9 min | 2.67 nM |  | 4180 nM |
| COc1ncc(-c2ccc3ncnc(N[C@H]4CCN(C(=O)C5CCOCC5)C4)c3n2)cc1CCl | 340 nM | 430 min | 10.4 nM |  | 570 nM |
| COc1ncc(-c2ccc3ncnc(N[C@H]4CCN(C(=O)C5CCOCC5)C4)c3n2)cc1C=O | 350 nM | 2.3 min | 93.5 nM |  | 310 nM |
| COc1ncc(-c2ccc3ncnc(N[C@H]4CCN(C(=O)C5CCOCC5)C4)c3n2)cc1C(=O)Oc1ccc([N+](=O)[O-])cc1 | 20 nM | < 1 min | 2.31 nM | 10.4 nM | 788 nM |
| COc1ccc(OC(=O)c2cc(-c3ccc4ncnc(N[C@H]5CCN(C(=O)C6CCOCC6)C5)c4c3)cnc2OC)cc1 | 6 nM | 387 min | 2.02 nM | 56.5 nM | 225 nM |
| C#Cc1ccc(-c2ccc3ncnc(N[C@H]4CCN(C(=O)C5CCOCC5)C4)c3n2)cc1C=O | 430 nM | 2.1 min | 1.48 nM |  | 2320 nM |
| COc1ncc(-c2ccc3ncnc(N[C@H]4CCN(C(=O)C5CCOCC5)C4)c3c2)cc1C(=O)Oc1ccc(C(F)(F)F)cc1 | 133 nM | 1.9 min | 0.93 nM | 330 nM | 816 nM |
| COc1ncc(-c2ccc3ncnc(N[C@H]4CCN(C(=O)C5CCOCC5)C4)c3c2)cc1C=O | 170 nM | 2.1 min | 48.8 nM |  | 200 nM |
| C=CC(=O)Nc1cc(-c2ccc3ncnc(N[C@H]4CCN(C(=O)C5CCOCC5)C4)c3c2)cnc1OC | 710 nM | > 1440 min | 8.59 nM |  | 1520 nM |
| COC(=O)c1cc(-c2ccc3ncnc(N[C@H]4CCN(C(=O)C5CCOCC5)C4)c3c2)cnc1OC | 50 nM | > 1440 min | 1.59 nM | > 1000 nM | 1240 nM |
| O=Cc1cc(-c2ccc3ncnc(N[C@H]4CCN(C(=O)C5CCOCC5)C4)c3n2)ccc1O | 710 nM | < 1 min | 5.58 nM |  | 5480 nM |
| C=CC(=O)Nc1cc(-c2ccc3ncnc(N[C@H]4CCN(C(=O)C5CCOCC5)C4)c3n2)cnc1OC | 650 nM | > 1440 min | 47.8 nM |  | 1190 nM |
